According to US8946282B2, “Indolin-2-one derivatives as protein kinase inhibitors” (Annji Pharmaceutical Co., Ltd., priority 2012, dated 2015):

What was measured:
aurora B = aurora B (Homo sapiens, UniProt Q96GD4); assay: radioisotope-based P81 filter-binding assay, aurora B kinase; type: biochemical; conditions: for inhibition at 1 µM: compound at 1.0 μM, mean values (n=2), read-out: percent inhibition of enzyme catalytic activity, Aur B (numbers in parentheses); for IC50: averaged from two independent dose-response curves, read-out: Enzyme assay IC50 Aur B
Procedure: (§1) Compounds of formula (I)-(IV) were evaluated for abilities in inhibiting protein kinases aurora B and FLT-3 activity using radioisotope-based P81 filter-binding assay (Table 1).

FLT-3 = molecular target: T1, FLT-3 (Homo sapiens, UniProt P36888); assay: radioisotope-based P81 filter-binding assay, FLT-3 kinase; type: biochemical; conditions: for inhibition at 1 µM: compound at 1.0 μM, mean values (n=2), read-out: percent inhibition of enzyme catalytic activity, FLT-3 (numbers in parentheses); for IC50: averaged from two independent dose-response curves, read-out: Enzyme assay IC50 FLT-3
T1 sequence (P36888 27-993): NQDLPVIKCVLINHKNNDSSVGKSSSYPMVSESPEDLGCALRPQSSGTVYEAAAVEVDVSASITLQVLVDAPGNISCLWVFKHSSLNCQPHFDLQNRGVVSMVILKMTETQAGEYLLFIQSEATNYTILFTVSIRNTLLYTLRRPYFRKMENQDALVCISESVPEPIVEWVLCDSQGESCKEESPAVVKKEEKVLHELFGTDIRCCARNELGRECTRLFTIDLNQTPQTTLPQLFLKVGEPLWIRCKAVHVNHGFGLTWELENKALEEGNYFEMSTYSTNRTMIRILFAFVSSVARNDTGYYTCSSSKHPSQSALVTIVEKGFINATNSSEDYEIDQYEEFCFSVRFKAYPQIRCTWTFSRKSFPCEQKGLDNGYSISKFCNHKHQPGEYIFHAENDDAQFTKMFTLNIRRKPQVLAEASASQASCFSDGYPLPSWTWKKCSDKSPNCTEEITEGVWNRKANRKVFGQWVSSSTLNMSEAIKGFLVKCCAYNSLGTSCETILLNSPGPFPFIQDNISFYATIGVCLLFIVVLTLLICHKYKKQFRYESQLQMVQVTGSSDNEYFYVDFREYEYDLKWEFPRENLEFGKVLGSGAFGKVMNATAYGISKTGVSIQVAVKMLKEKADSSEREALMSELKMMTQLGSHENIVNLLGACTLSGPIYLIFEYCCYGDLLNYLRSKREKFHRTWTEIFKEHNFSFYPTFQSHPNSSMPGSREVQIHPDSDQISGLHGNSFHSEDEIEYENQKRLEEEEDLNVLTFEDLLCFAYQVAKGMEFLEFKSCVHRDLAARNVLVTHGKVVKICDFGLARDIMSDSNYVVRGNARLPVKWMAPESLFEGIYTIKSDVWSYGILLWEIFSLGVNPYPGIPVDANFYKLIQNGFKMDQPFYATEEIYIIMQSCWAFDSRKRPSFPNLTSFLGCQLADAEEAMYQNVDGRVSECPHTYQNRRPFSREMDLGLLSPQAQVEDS
Procedure: as §1

Chain of aurora B (Q96GD4 whole entry): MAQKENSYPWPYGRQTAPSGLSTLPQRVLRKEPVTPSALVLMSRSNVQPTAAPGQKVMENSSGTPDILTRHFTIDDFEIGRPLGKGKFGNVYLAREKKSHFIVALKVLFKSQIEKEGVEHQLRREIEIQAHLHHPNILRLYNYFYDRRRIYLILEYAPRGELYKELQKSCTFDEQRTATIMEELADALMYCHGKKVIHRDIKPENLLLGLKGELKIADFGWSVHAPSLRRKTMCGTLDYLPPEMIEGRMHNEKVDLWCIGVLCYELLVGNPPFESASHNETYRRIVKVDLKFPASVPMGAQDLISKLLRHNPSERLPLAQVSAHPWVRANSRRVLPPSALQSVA

Row | inhibition at 1 µM (aurora B) [%] | inhibition at 1 µM (FLT-3) [%] | melting point | IC50 (FLT-3) [nM] | IC50 (aurora B) [nM] | SMILES
1 | 20.9 | 10 | 286 to 291 °C (dec.) | – | – | COc1ccc(C(=O)NC(=O)Nc2ccc3c(c2)NC(=O)/C3=C\c2ccc(C(=O)O)[nH]2)cc1 [D45, (Z)-5-((6-(3-(4-methoxybenzoyl)ureido)-2-oxoindolin-3-ylidene)-methyl)-1H-pyrrole-2-carboxylic acid]
2 | – | – | > 300 °C | 3330 | 10.7 | O=C1Nc2cc(NC(=O)N3CCN(C4CC4)C3=O)c(F)cc2/C1=C/c1ccc[nH]1 [D82, (Z)—N-(3-((1H-pyrrol-2-yl)methylene)-5-fluoro-2-oxoindolin-6-yl)-3-cyclopropyl-2-oxoimidazolidine-1-carboxamide]
3 | 55.9 | 43.2 | 274 to 279 °C (dec.) | – | – | COc1ccc(/C=C2/C(=O)Nc3cc(NC(=O)NC(=O)c4ccc(OC)cc4)ccc32)cc1 [D19, (E)-4-methoxy-N-(3-(4-methoxybenzylidene)-2-oxoindolin-6-yl-carbamoyl)benzamide]
4 | – | – | > 300 °C | > 10000 | 35.1 | COc1ccc(C(=O)NC(=O)Nc2cc3c(cc2F)/C(=C/c2ccc[nH]2)C(=O)N3)cc1 [D48, (Z)—N-(3-((1H-pyrrol-2-yl)methylene)-5-fluoro-2-oxoindolin-6-ylcarbamoyl)-4-methoxybenzamide]
5 | 44 | 15.4 | 278 to 283 °C (dec.) | – | – | COc1ccc(C(=O)NC(=O)Nc2ccc3c(c2)NC(=O)C3=Cc2ccco2)cc1 (stereo in doubt) [D23, (E)-N-(3-(furan-2-ylmethylene)-2-oxoindolin-6-ylcarbamoyl)-4-methoxybenzamide]
6 | – | – | 295 to 300 °C (dec.) | 54.2 | 2.1 | Cc1[nH]c(/C=C2\C(=O)Nc3cc(NC(=O)NC(=O)c4ccc(Cl)c(Cl)c4)ccc32)c(C)c1C(=O)O [D34, (Z)-5-((6-(3-(3,4-dichlorobenzoyl)ureido)-2-oxoindolin-3-ylidene)methyl)-2,4-dimethyl-1H-pyrrole-3-carboxylic acid]
7 | – | – | 279 to 284 °C (dec.) | 1220 | 24.2 | CN(C)c1ccc(N2CCN(C(=O)Nc3ccc4c(c3)NC(=O)/C4=C\c3ccc[nH]3)C2=O)cc1 [D93, (Z)—N-(3-((1H-pyrrol-2-yl)methylene)-2-oxoindolin-6-yl)-3-(4-(dimethylamino)-phenyl)-2-oxoimidazolidine-1-carboxamide]
8 | – | – | > 300 °C | 1790 | 14.3 | O=C1Nc2cc(NC(=O)N3CCN(c4cccc(Cl)c4)C3=O)ccc2/C1=C/c1ccc[nH]1 [D85, (Z)—N-(3-((1H-pyrrol-2-yl)methylene)-2-oxoindolin-6-yl)-3-(3-chlorophenyl)-2-oxoimidazolidine-1-carboxamide]
9 | – | – | 295 to 300 °C (dec.) | 111 | 2.3 | COc1ccc(C(=O)NC(=O)Nc2ccc3c(c2)NC(=O)/C3=C\c2[nH]c(C)c(C(=O)O)c2C)c(F)c1 [D57, (Z)-5-((6-(3-(2-fluoro-4-methoxybenzoyl)ureido)-2-oxoindolin-3-ylidene)methyl)-2,4-dimethyl-1H-pyrrol-3-carboxylic acid]
10 | – | – | 240 to 245 °C (dec.) | 31.7 | 1.8 | COc1ccc(C(=O)NC(=O)Nc2ccc3c(c2)NC(=O)/C3=C\c2[nH]c(C)c(CC(=O)O)c2C)cc1 [D46]
11 | – | – | 243 °C | > 1000 | > 1000 | Cc1cc(C(=O)O)[nH]c1/C=C1\C(=O)Nc2cc(NC(=O)c3c[nH]cc(-c4ccc(F)cc4)c3=O)ccc21 [D146, (Z)-5-((6-(5-(4-fluorophenyl)-4-oxo-1,4-dihydropyridine-3-carboxamido)-2-oxoindolin-3-ylidene)methyl)-4-methyl-1H-pyrrole-2-carboxylic acid]
12 | – | – | 276 to 281 °C (dec.) | > 1000 | 6.5 | O=C(NC(=O)c1ccccc1F)Nc1ccc2c(c1)NC(=O)/C2=C\c1ccc[nH]1 [D52, (Z)—N-(3-((1H-pyrrol-2-yl)methylene)-2-oxoindolin-6-ylcarbamoyl)-2-fluorobenzamide]

The next lines start with the molecule.

Row | SMILES | inhibition at 1 µM (aurora B) [%] | inhibition at 1 µM (FLT-3) [%] | melting point | IC50 (FLT-3) [nM] | IC50 (aurora B) [nM]
13 | COc1ccc(C(=O)NC(=O)Nc2ccc3c(c2)NC(=O)/C3=C\c2ccncc2)cc1 [D21, (Z)-4-methoxy-N-(2-oxo-3-(pyridin-4-ylmethylene)indolin-6-ylcarbamoyl)benzamide] | 7 | 3.6 | 270 to 275 °C (dec.) | – | –
14 | COc1ccc(C(=O)NC(=O)Nc2ccc3c(c2)NC(=O)/C3=C\c2[nH]c(C)c(-c3ccccc3)c2C)cc1 [D43, (Z)—N-(3-((3,5-dimethyl-4-phenyl-1H-pyrrol-2-yl)methylene)-2-oxoindolin-6-ylcarbamoyl)-4-methoxybenzamide] | 12.4 | – | > 300 °C | > 1000 | –
15 | COc1ccc(C(=O)NC(=O)Nc2ccc3c(c2)NC(=O)/C3=C\c2[nH]c(C)cc2C)cc1 [D44, (Z)—N-(3-((3,5-dimethyl-1H-pyrrol-2-yl)methylene)-2-oxoindolin-6-ylcarbamoyl)-4-methoxybenzamide] | – | – | 293 to 298 °C | > 1000 | 55.5
16 | COc1cc(F)c(C(=O)NC(=O)Nc2cc3c(cc2F)/C(=C/c2[nH]c(C)c(C(=O)O)c2C)C(=O)N3)c(F)c1 [D61] | – | – | > 300 °C | 380 | 2.1
17 | CN1CCN(C(=O)Nc2ccc3c(c2)NC(=O)/C3=C\c2ccc[nH]2)C1=O [D80, (Z)—N-(3-((1H-pyrrol-2-yl)methylene)-2-oxoindolin-6-yl)-3-methyl-2-oxoimidazolidine-1-carboxamide] | – | – | 267 to 272 °C (dec.) | 70.6 | 1100
18 | COc1ccc(C(=O)NC(=O)Nc2ccc3c(c2)NC(=O)/C3=C\c2[nH]c(C)c(CCC(=O)N3CCN(C)CC3)c2C)c(F)c1 [D65, (Z)—N-(3-((3,5-dimethyl-4-(3-(4-methylpiperazin-1-yl)-3-oxopropyl)-1H-pyrrol-2-yl)methylene)-2-oxoindolin-6-ylcarbomoyl)-2-fluoro-4-methoxybenzamide] | – | – | 229 to 234 °C (dec.) | 41.4 | 18.4
19 | O=C1Nc2cc(NC(=O)N3CCN(C4CC4)C3=O)ccc2/C1=C/c1ccc[nH]1 [D81, (Z)—N-(3-((1H-pyrrol-2-yl)methylene)-2-oxoindolin-6-yl)-3-cyclopropyl-2-oxoimidazolidine-1-carboxamide] | – | – | 284 to 289 °C (dec.) | 1800 | 19.9
20 | Cc1[nH]c(/C=C2\C(=O)Nc3cc(NC(=O)N4CCN(C5CC5)C4=O)ccc32)c(C)c1C(=O)O [D96, (Z)-5-((6-(3-cyclopropyl-2-oxoimidazolidine-1-carboxamido)-2-oxoindolin-3-ylidene)methyl)-2,4-dimethyl-1H-pyrrole-3-carboxylic acid] | – | – | > 300 °C | 217 | 3.5
21 | O=C1Nc2cc(NC(=O)c3cccn(CCO)c3=O)ccc2/C1=C/c1ccc[nH]1 [D117, (Z)—N-(3-((1H-pyrrol-2-yl)methylene)-2-oxoindolin-6-yl)-1-(2-hydroxyethyl)-2-oxo-1,2-dihydropyridine-3-carboxamide] | – | – | 298 °C (dec.) | 612 | 32.5
22 | Cn1cccc(C(=O)Nc2ccc3c(c2)NC(=O)/C3=C\c2ccc[nH]2)c1=O [D116, (Z)—N-(3-((1H-pyrrol-2-yl)methylene)-2-oxoindolin-6-yl)-1-methyl-2-oxo-1,2-dihydropyridine-3-carboxamide] | – | – | > 300 °C | 510 | 102
23 | COc1ccc(C(=O)NC(=O)Nc2ccc3c(c2)NC(=O)/C3=C/c2ccccc2)cc1 [D17, (E)-N-(3-benzylidene-2-oxoindolin-6-ylcarbamoyl)-4-methoxybenzamide] | 61.2 | 34.4 | 277 to 282 °C (dec.) | – | –
